This note sets out measurements from patent publication US20230416203A1, “POTENT AND SELECTIVE INHIBITORS OF THE CALCIUM-ACTIVATED POTASSIUM CHANNEL, KCA3.1, FOR USE AS PLATFORM THERAPEUTICS” (priority 2020, published 2023).

Data set [1] deals with T1, KV1.7 (Homo sapiens, UniProt Q96RP8).
T1 construct: expressed in transfected cells; host or cells: CHL
Nature of the data set: Potassium channels patch-clamp (QPatch), KV1.7. Type of data set: cell-based. Here is the method: (§1) The effects of Group 4 compounds on related potassium channels were evaluated by patch-clamp using a QPatch HTX automated electrophysiology platform (Sophion, Denmark). The giga-seal and whole-cell requirements for the automated electrophysiology were the following: minimum seal resistance=0.1 GO, holding potential=−80 mV, holding pressure=−20 mbar; and positioning pressure=−70 mbar.
On the technique in general: Patch clamp records ionic current or voltage across a cell membrane.

Data set [2] concerns the target T2, KV1.3 (Mus musculus, UniProt P16390).
T2 construct: expressed in transfected cells; host or cells: L929
Put plainly: Potassium channels patch-clamp (QPatch), KV1.3. Type of data set: cell-based. Here is the method:
as §1

Data set [3] addresses T3, KV11.1 (hERG) (Homo sapiens, UniProt Q12809).
T3 construct: host or cells: CHO
Nature of the data set: Potassium channels patch-clamp (QPatch), KV11.1 (hERG). Type of data set: cell-based. Here is the method: as §1

In data set [4] the target is CYP-2C9 (Homo sapiens, UniProt P11712). Put plainly: Cytochrome P450 enzymes inhibition assay, CYP-2C9. Type of data set: in vitro ADME. As to conditions: for CYP IC50/KCa3.1 IC50: CYP-2C9. An excerpt:
The metabolite formation for each substrate under the above conditions was estimated using the following formula: Percent inhibition=[1−(test area ratio/control area ratio)]×100.

Data set [5] concerns the target T4, KCa2.2 (Rattus norvegicus, UniProt P70604).
T4 construct: expressed in transfected cells; host or cells: HEK
Put plainly: Potassium channels patch-clamp (QPatch), KCa2.2. Type of data set: cell-based. Here is the method: as §1

The nature of data set [6]: Plasma and brain distribution studies.
Experimental: The dosing volume for intraperitoneal administration was 5 mL/kg. Following blood collection, the animals were sacrificed, and their abdominal vena-cava were cut open and whole body were perfused from heart using 10 mL normal saline. The brain samples were collected from a set of three mice at 0.08, 0.25, 0.5, 1, 2, 4, 8 and 10 h. After isolation, the brain samples were rinsed thrice in ice cold normal saline (for 5-10 s/rinse using ˜10-20 mL normal saline in disposable petri dish for each rinse) and dried on blotting paper. The brain samples were homogenized using ice-cold phosphate buffer saline (pH=7.4). The total homogenate volume was three times the tissue weight. All homogenates were stored below −70° C. until bioanalysis. […] Non-Compartmental-Analysis tool of Phoenix WinNonlin® (Version 8.0) was used to assess the pharmacokinetic parameters.
Data set [7] concerns the target T5, KV3.1 (Mus musculus, UniProt P15388).
T5 construct: expressed in transfected cells; host or cells: L929
T5 sequence (P15388 1-511): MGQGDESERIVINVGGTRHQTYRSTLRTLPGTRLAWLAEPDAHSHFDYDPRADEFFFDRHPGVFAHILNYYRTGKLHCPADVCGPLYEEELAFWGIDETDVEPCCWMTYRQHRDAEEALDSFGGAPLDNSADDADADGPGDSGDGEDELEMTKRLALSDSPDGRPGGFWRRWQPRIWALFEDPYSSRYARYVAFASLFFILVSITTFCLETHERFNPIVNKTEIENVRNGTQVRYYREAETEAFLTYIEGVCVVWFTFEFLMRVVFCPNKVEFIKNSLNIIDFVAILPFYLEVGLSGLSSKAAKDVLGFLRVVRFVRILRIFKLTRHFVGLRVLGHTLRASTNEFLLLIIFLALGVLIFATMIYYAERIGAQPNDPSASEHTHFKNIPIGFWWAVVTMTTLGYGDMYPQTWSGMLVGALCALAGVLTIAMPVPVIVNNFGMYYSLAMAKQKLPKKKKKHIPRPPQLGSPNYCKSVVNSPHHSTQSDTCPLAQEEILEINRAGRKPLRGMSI
Put plainly: Potassium channels patch-clamp (QPatch), KV3.1. It counts as cell-based. Here is the method:
as §1

In data set [8] the target is T6, KCa2.3 (Homo sapiens, UniProt Q9UGI6).
T6 construct: expressed in transfected cells; host or cells: COS7
Nature of the data set: Potassium channels patch-clamp (QPatch), KCa2.3. Type of data set: cell-based. On the procedure: as §1

The mark [9] stands for this setting: male, C57BL/6, mouse, brain, ip, 50 mg/kg.
[10] abbreviates: male, C57BL/6, mouse, plasma, ip, 50 mg/kg.

Sequence of CYP-2C9 (P11712 whole entry): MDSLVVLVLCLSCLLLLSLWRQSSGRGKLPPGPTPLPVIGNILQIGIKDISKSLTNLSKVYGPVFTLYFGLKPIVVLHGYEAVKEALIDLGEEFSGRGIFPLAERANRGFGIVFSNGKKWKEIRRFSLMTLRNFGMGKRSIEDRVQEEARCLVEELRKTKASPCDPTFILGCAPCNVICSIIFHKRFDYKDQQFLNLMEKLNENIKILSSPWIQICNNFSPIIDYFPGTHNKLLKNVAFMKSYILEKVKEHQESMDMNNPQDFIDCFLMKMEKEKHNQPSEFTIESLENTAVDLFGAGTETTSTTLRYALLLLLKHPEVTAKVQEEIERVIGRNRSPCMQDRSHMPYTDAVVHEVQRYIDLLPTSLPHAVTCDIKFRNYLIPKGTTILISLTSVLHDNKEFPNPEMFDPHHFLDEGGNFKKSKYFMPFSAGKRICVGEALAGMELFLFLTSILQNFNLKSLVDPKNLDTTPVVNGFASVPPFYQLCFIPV
T3 sequence (Q12809 whole entry): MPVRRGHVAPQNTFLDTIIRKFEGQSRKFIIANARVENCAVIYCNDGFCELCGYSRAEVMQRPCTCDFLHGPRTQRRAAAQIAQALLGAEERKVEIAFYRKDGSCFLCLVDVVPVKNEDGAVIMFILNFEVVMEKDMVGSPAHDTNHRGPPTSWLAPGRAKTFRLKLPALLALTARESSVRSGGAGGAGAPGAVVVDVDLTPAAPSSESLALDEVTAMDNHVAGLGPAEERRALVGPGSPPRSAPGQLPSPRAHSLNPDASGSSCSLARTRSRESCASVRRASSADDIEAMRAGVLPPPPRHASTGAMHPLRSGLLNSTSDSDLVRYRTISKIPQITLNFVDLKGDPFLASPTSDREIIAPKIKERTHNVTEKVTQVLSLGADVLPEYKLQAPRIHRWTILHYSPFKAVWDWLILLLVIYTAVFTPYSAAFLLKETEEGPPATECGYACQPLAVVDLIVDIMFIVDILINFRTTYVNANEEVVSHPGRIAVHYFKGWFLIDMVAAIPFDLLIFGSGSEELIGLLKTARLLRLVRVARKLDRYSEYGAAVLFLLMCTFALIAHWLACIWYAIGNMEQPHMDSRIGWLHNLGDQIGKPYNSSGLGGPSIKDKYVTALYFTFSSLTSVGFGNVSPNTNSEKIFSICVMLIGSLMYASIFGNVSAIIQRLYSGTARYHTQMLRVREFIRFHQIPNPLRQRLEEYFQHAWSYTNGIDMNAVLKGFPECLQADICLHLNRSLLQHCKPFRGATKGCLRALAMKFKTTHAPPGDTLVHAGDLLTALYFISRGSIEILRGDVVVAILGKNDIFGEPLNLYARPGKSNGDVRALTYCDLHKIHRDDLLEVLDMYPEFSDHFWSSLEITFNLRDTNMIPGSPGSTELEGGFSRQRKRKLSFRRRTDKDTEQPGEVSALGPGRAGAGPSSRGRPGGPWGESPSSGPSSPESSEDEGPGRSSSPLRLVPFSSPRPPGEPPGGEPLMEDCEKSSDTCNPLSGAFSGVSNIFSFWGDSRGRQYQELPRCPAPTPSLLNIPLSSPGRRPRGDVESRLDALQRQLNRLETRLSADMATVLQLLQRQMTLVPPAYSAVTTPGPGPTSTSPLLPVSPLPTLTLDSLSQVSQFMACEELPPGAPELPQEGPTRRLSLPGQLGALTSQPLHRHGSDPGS
T1 sequence (Q96RP8 whole entry): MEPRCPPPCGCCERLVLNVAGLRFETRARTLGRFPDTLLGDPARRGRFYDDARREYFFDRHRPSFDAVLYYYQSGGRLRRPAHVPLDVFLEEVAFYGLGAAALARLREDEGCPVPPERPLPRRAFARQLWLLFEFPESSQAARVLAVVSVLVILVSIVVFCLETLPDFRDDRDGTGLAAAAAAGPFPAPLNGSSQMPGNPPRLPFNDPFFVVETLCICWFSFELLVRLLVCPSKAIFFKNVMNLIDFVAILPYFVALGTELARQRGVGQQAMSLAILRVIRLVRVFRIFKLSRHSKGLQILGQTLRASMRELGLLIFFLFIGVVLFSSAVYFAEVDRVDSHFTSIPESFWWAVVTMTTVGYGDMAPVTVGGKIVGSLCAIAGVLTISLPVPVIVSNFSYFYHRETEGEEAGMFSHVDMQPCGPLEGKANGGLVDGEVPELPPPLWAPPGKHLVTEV
T4 sequence (P70604 whole entry): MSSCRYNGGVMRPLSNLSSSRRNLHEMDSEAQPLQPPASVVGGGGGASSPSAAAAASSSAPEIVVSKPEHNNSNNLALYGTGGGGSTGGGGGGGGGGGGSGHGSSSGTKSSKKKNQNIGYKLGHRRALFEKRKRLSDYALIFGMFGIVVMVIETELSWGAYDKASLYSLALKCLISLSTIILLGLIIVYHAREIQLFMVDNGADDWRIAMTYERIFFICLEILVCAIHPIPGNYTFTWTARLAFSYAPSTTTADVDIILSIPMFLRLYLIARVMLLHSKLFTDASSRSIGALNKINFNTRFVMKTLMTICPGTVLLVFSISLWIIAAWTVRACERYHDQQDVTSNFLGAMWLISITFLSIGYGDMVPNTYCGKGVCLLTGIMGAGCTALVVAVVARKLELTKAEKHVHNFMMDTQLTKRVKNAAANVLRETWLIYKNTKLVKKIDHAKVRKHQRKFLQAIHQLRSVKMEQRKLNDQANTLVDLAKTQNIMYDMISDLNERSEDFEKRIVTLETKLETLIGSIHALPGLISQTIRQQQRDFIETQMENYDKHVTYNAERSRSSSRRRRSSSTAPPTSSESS
T2 sequence (P16390 whole entry): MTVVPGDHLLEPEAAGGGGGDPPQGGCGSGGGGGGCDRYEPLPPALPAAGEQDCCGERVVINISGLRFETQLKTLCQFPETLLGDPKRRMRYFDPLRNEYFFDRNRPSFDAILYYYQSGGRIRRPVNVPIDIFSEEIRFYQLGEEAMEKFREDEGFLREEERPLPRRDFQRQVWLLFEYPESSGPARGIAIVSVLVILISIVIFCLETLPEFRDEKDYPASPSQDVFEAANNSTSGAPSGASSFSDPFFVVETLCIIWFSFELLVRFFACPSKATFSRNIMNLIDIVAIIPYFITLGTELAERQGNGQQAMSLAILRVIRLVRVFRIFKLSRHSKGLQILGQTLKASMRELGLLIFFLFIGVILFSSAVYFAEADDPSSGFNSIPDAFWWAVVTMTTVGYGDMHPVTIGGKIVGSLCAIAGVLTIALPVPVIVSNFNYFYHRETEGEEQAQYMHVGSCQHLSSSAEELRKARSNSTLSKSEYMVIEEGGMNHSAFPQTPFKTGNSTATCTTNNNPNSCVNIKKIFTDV
T6 sequence (Q9UGI6 whole entry): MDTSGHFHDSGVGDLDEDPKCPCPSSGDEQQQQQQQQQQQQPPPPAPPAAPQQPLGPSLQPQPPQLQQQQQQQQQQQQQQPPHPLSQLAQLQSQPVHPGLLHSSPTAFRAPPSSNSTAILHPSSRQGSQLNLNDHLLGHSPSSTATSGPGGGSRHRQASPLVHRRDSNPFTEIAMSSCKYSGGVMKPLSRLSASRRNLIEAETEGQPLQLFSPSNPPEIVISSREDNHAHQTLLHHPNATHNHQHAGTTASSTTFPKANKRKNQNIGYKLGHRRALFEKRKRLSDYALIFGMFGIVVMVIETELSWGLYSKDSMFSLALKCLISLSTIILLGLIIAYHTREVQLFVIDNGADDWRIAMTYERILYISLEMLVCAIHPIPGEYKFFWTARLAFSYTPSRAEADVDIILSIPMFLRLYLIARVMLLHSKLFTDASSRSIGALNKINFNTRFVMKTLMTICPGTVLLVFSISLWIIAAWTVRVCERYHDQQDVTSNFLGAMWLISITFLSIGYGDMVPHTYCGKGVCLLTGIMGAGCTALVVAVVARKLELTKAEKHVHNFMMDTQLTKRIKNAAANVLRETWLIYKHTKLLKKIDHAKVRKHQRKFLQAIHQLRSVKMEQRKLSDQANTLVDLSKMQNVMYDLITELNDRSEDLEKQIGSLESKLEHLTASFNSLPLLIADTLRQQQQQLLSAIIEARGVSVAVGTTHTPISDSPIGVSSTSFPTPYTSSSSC

In the case of `COC(=O)C1=CNC=C(C(=O)OC)C1c1ccc(F)c(C(F)(F)F)c1` [Compound 103, Dimethyl 4-(4-fluoro-3-(trifluoromethyl)phenyl)-1,4-dihydropyridine-3,5-dicarboxylate], the IC50 in data set [1], in data set [2], in data set [3], in data set [5] and in data set [7] was greater than 10 µM throughout. For the same compound, in data set [4], the “CYP IC50/KCa3.1 IC50” value was 836. In addition, the AUClast in data set [6] (Brain, IP 50 mg/kg, mice) turned out to be 88658.12 ng·h/g. In addition, the Cmax in data set [6] (setting [9]) turned out to be 26800 ng/g; in data set [6] (setting [10]), 8540 ng/mL. The mean residence time (MRT last) in data set [6] (setting [9]) stood at 2.09 h; in data set [6] (setting [10]), 2.02 h. Besides, the time of peak concentration (Tmax) in data set [6] (setting [9]) and in data set [6] (setting [10]) was 0.25 h throughout. The figures for the half-life in data set [6] (setting [9]) and in data set [6] (setting [10]) were 1.06 h and 1.63 h, respectively. For the same compound, the area under the curve AUC(0-t) in data set [6] (setting [10]) is 20000 ng·h/mL.

Take `COC(=O)C1=C(C)NC(C)=C(C(=O)OC)C1c1ccc(F)c(C(F)(F)F)c1` [Compound 101]: the IC50 in data set [1] is greater than 10 µM; in data set [2], greater than 10 µM; in data set [3] it was greater than 10 µM; in data set [4] (microsomes), 2.6 µM; in data set [5], greater than 10 µM; in data set [7], greater than 10 µM. In addition, the IC50 in data set [8] turned out to be 8 µM. In addition, the “CYP IC50/KCa3.1 IC50” value in data set [4] turned out to be 162.5.

The term IC50 denotes the concentration at which inhibition is half-maximal. The low end stands for greater potency, the high end for weaker potency. As a reminder, the Cmax is the maximum level reached in the sampled fluid or tissue. The term MRT last denotes the average time that molecules of a dose stay in the body. What is called Tmax is the time from dosing to the highest level. In general, half-life refers to the time needed for the level to fall by half in the phase considered. Low values mean rapid decline, high ones slow decline. Usually AUC(0-t) stands for exposure summed from dosing to a finite time, without extrapolation to infinity. The low end stands for low exposure, the high end for high exposure.
